Reference: article PMC12811996, “Exploration and Characterization of the Antimalarial Activity of Pyrimidine‐2,4‐Diamines for which Resistance is Mediated by the ABCI3 Transporter” (Chemmedchem, 2025)
Read-outs that look alike come from different tables or passages of the source.

Tests used:
[1] = system: late stage (IV‐V) gametocytes; conditions: at 5 µM; cited from earlier work
P. berghei liver stage = conditions: at 50 µM; cited from earlier work
[2] = system: early stage (I–III) gametocytes; conditions: at 2.5 µM; cited from earlier work
[3] = system: P. falciparum 3D7 parasites; experiment: P. falciparum 3D7 asexual stage parasite LDH assay, 72 h; assay type: cell-based, Plasmodium falciparum
Procedure: (§1) To establish the SAR, the antiparasitic activity of the analogs was determined using an assay that measures the lactate dehydrogenase (LDH) activity of asexual P. falciparum 3D7 parasites after 72 h of compound treatment. Mammalian cytotoxicity was monitored using an assay that measures the growth of HepG2 cells using Cell Titer‐Glo after 48 h of compound treatment.
This was performed as previously described, whereby lactate dehydrogenase (LDH) was used as a metabolic marker for parasite growth after a 72‐h incubation period.^[ [14] ^, [30] ^]

in vitro [4] = assay type: cell-based; conditions: human; HepG2 viability over 48 h, Cell Titer-Glo; means and SDs, 3 experiments; read-out: HepG2 CC50 (SD)
Procedure: as §1
This was performed as previously described.^[ [14] ^, [31] ^]

[5] = system: P. falciparum 3D7 parasites; conditions: asexual P. falciparum 3D7; hits from GSK TCAMS screen / MMV Malaria Box; cited from earlier work
hemoglobin catabolism = system: hemoglobin catabolism; parameters: method as in PMID 27572391; conditions: previous metabolomic profiling; cited from earlier work
physchem [6] = assay type: physicochemical; conditions: shake-flask method; listed as 1
Procedure: (§2) This was performed as previously described.^[ [14] ^, [16] ^]

[7] = system: Plasmodium falciparum strain 3D7A; experiment: Parasite reduction ratio assay; assay type: cell-based
Excerpt: (§3) Figure 5 a) Stage of arrest assay showing that W482 (1) blocks ring‐trophozoite transition in the asexual stage of P. falciparum. […] Replicates of Giemsa‐stained blood smears can be found in Figure S4 (Supporting Information). c) Parasite reduction ratio assay conducted at 10 × EC50 of W482 (1). Data represent means and SD of P. falciparum 3D7 parasite survival measuring 3 independent replicates by two‐color flow cytometry using CFDA‐SE and Hoescht 33,342 staining.
Samples of parasites were collected at 24‐ and 48‐hour timepoints, whereby the compound was washed out and fresh erythrocytes pre‐labeled with intracellular dye were added. Samples were then incubated for 18 days, and then the number of viable parasites was quantified by flow cytometry (Figure 5c).
This assay was conducted following a previously described protocol using the Plasmodium falciparum strain 3D7A, MRA‐151.^[ [19] ^, [28] ^] The human biological samples used in the study were sourced ethically, and their research use was conducted in accordance with the terms of informed consent under an IRB/EC‐approved protocol.

physchem [8] = assay type: physicochemical; conditions: kinetic in PBS, pH 7.4; read-out: Aqueous solubility pH 7.4
Procedure: (§4) The aqueous solubility and in vitro metabolic stability of selected analogs were assessed to determine if they had favorable parameters (Table 9 ).These analogs were selected based on their potency and the modifications that were incorporated, which led to compounds 55 and 56. […] The high lipophilicity of analogs 1, 11, and 16 was not favorable for metabolic stability.
as §2

Albumax = Albumax (Bos taurus, UniProt P02769); experiment: in vitro; assay type: in vitro ADME
Albumax, sequence (P02769 25-607): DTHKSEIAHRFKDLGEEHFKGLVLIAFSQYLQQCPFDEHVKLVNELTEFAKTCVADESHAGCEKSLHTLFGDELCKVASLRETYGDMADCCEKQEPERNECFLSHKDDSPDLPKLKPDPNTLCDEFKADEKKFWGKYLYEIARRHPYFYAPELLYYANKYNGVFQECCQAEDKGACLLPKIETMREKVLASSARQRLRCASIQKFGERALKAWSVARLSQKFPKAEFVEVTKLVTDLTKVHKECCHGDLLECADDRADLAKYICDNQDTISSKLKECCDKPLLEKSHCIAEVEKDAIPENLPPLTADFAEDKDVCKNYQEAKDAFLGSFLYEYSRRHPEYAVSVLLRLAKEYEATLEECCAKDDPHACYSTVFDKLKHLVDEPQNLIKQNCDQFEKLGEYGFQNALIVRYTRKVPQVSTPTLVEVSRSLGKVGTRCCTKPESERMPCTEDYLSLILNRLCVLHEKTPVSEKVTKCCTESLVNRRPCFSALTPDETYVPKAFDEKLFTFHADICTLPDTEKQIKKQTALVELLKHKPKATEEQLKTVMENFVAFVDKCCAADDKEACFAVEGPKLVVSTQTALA

in vitro [9] = assay type: in vitro ADME
Procedure: as §4, §2

[10] = system: W482-resistant P. falciparum 3D7 populations; experiment: 72 h Pf LDH assay against W482-selected populations; assay type: cell-based, Plasmodium falciparum; conditions: for EC50: 72 h Pf LDH assay
Procedure: To identify the mechanism by which the pyrimidine‐2,4‐diamine class kills the P. falciparum parasite, a forward genetic study was performed on the hit compound W482 (1). We selected W482 (1) as the representative compound from this class, as the forward genetics and phenotype assays were performed in parallel to the medicinal chemistry described in the prior section. […] Genomic DNA was then prepared from these two resistant populations and the parental 3D7 strain and whole genome sequenced.
Figure 3 The activity of W482 (1) against W482‐selected populations and their 3D7 parental. The data are mean and SD from 3 independent 72 h Pf LDH assays.
This was performed as previously described.^[ [14] ^] Briefly, 3D7 wildtype parasites initially exposed to 2 × EC50 (0.3 µM) of W482 (1) and incremental increases in EC50 were applied until 10 × EC50 was reached. The resistant populations were not cloned for whole‐genome sequencing.

[11] = system: P. falciparum 3D7 parasites; experiment: Stage of asexual arrest assay; assay type: cell-based, Plasmodium falciparum
Procedure: The asexual stage of arrest and parasite reduction ratio (PRR) assays were undertaken on W482 (1) to assess the speed‐of‐asexual kill and the alignment of the pyrimidine‐2,4‐diamine class with the Target Candidate Profiles (TCPs).^[ [27] ^] […] Parasite samples were collected from the culture at 12, 24, 36, 48, and 60 h, and microscopy was performed on Giemsa‐stained thin blood‐smeared samples. These samples were also quantified with flow cytometry using SYBR Green.
as §3

PfABCI3-HAreg parasites = experiment: Parasite proliferation assay with PfABCI3-HAreg parasites (SYBR Safe, 72 h); assay type: cell-based, Plasmodium falciparum; conditions: mean ± SEM, n = 4; for IC50: 72 h
Procedure: Glucosamine (GlcN) (5 mM) was used to reduce the level of pfabci3‐ha. Chloroquine and MMV020746 were used as negative and positive controls, respectively.
Figure 4 Sensitivity of PfABCI3‐HAreg parasites to growth inhibition by chloroquine (a), MMV020746 (b), and W482 (1) (c). Data for parasites in which pfabci3‐ha mRNA was reduced (+ GlcN) are shown in red. GlcN (5 mM) was added to the parasites 48 h prior to the assay and maintained throughout the 72 h assay. The data for parasites expressing a normal level of PfABCI3‐HA (‐GlcN) are shown in black. The data in all panels are from four independent experiments performed on different days. […] Parasites that were treated with or without GlcN (5 mM) were tested concurrently in each assay. TEXT PRINTED IN THE PICTURE: chloroquine: IC50 ± SEM (nM) - GlcN: 12.6 ± 1.1; IC50 ± SEM (nM) + GlcN: 11.9 ± 1.5 | MMV020746: IC50 ± SEM (nM) - GlcN: 104 ± 13; IC50 ± SEM (nM) + GlcN: 32.9 ± 3.9 | W482 (1): IC50 ± SEM (nM) - GlcN: 312 ± 28; IC50 ± SEM (nM) + GlcN: 153 ± 12
Parasite proliferation assays were performed with PfABCI3‐HAreg parasites^[ [19] ^] according to a previously described method, with the fluorescent nucleic acid intercalating dye SYBR Safe used to measure parasite viability.^[ [32] ^, [33] ^] The assays were commenced with cultures consisting of predominantly ring‐stage parasites with a starting hematocrit of 1% and parasitemia of 1%. […] It was shown previously that there is a reduction in pfabci3‐ha mRNA in PfABCI3‐HAreg exposed to 5 mM GlcN and a decrease in parasite viability over time.^[ [19] ^] The level of knockdown of the protein is not known.

[12] = Plasmodium falciparum, 3D7, 72 h, P. falciparum 3D7, LDH activity, 72 h exposure, means and SDs, 3 or more experiments, read-out: Pf parasite EC50 (SD)

Cc1cc(N(C)C)nc(Nc2ccc(NC(=O)Nc3ccccc3)cc2)n1 [MMV020243 (2)]
inhibition of late stage (IV‐V) gametocytes [1]: 2%
inhibition of P. berghei liver stage development (P. berghei liver stage): 2%
inhibition of early stage (I–III) gametocytes [2]: 67%

CCN(CC)c1cc(C)nc(Nc2ccc(NC(=O)CCC3CCCCC3)cc2)n1 [Compound 4]
EC50 [3, 12]: 520 nM
CC50 (in vitro [4]): 18000 nM

CN(C)c1cc(Nc2ccc(NC(=O)CCC3CCCCC3)cc2)nc2ccccc12 [Compound 22, 3‐Cyclohexyl‐N‐(4‐((4‐(dimethylamino)quinolin‐2‐yl)amino)phenyl)propanamide]
EC50 [3, 12]: 2470 nM
CC50 (in vitro [4]): 15900 nM

Cc1cc(N2CCCC2)nc(Nc2ccc(NC(=O)CCC3CCCCC3)cc2)n1 [Compound 7, 3‐Cyclohexyl‐N‐(4‐((4‐methyl‐6‐(pyrrolidin‐1‐yl)pyrimidin‐2‐yl)amino)phenyl)propanamide]
EC50 [3, 12]: 540 nM
CC50 (in vitro [4]): 12600 nM

Cc1cc(N2CCCC2)nc(Nc2ccc(NC(=O)CCc3ccccc3)cc2)n1 [MMV396669 (3)]
inhibition of late stage (IV‐V) gametocytes [1]: 21%
inhibition of P. berghei liver stage development (P. berghei liver stage): 3%
EC50 [5]: 1070 nM
metabolomic profile (hemoglobin catabolism): peptide signature consistent with hemoglobin catabolism inhibition
inhibition of early stage (I–III) gametocytes [2]: 79%

3‐Cyclohexyl‐N‐(4‐((4‐(dimethylamino)‐6‐methylpyrimidin‐2‐yl)amino)phenyl)propenamide [W482 (1)]
eLogD (physchem [6]): 4.6–5.0
asexual speed-of-kill profile ([7]; 10 × EC50, 24 and 48 h treatment, P. falciparum 3D7): fast killing profile
lag phase ([7]; parasite killing profile): 24 h
solubility (physchem [8]): 3.8 µM
EC50 ([3]; parental 3D7 in resistance selection study, 72 h Pf LDH assay, 3 independent assays, read-out: EC50 against parental 3D7): 197 nM
Albumax binding % bound (Albumax): 99.1%
Human liver microsomes CLint (in vitro [9]): 174 µL/min/mg
Rat hepatocytes CLint (in vitro [9]): >92 µL/min/10^6 cells
Human liver microsomes CLint (in vitro [9]; listed as 1): > 117 µL/min/mg
EC50 ([10]; population #1, read-out: EC50 against W482-selected population #1): 396 nM
EC50 ([10]; population #2, read-out: EC50 against W482-selected population #2): 407 nM
fold decreased activity of resistant populations compared to parental 3D7 ([10]; two recovered populations vs parental 3D7): 2 fold
asexual stage of arrest ([11]; 10 × EC50 (1.4 µM) for 60 h, Giemsa-stained smears): ring to trophozoite transition stage
percentage of parasitemia over time ([11]; 10 × EC50 (1.4 µM), SYBR Green flow cytometry): declines after 36 h
IC50 (PfABCI3-HAreg parasites; PfABCI3-HAreg parasites expressing normal level of PfABCI3-HA (-GlcN)): 312 ± 28 nM
IC50 (PfABCI3-HAreg parasites; PfABCI3-HAreg parasites with reduced pfabci3-ha mRNA (+ 5 mM GlcN)): 153 ± 12 nM
fold lower IC50 for +GlcN parasites than -GlcN parasites (PfABCI3-HAreg parasites): 2.0 ± 0.1 fold
